# Assay results as given in patent publication US9211310B2, “Use of a Chinese medicine composition in preparing medicaments for treating secondary prevention of myocardial infarction” (TASLY PHARMACEUTICAL GROUP CO., LTD, priority 2010, dated 2015).
# Tested on: patients after acute myocardial infarction
# Assay: Angina pectoris score, total and single (frequency/attack times, duration, pain degree, dose of nitroglycerin), same clinical trial
# Format: in vivo, human
# Design: total angina pectoris score, Md / total angina pectoris score, Mean: scale not given here
# Details: for change of attack times score, patients (%): Follow-up baseline
# Excerpt: In order to better understand the present invention, a multi-center, randomized, double-blind, double-dummy and positive drug controlled trial had been conducted. 3508 patients who were in accordance with the diagnostic standards of AMI for 28 days to 2 years and differentiated as Qi deficiency and blood stagnation syndrome by TCM were studied. 0.5 g Chinese medicine composition prepared by the method of EXAMPLE 1 (Coded as QSYQ) was administrated half an hour after meal, 3 times per day. Aspirine was used as a positive drug. The patients were treated for 1 year and observed for 6 months.
# They included the overall survival time, angina pectoris score, TCM symptom score and life quality score, where angina pectoris score, TCM symptom score and life quality score were evaluated at randomization, in 1st, 3rd, 6th, 9th, 12th month after treatment and 18th month after follow-up.
# (§1) Total angina pectoris score was described on every observation period and the change of observation in comparison with baseline. T-test or Wilcoxon rank sum test were used for inter-group comparison. Grade of total score was evaluated on every observation and Wilcoxon rank sum test was used for inter-group comparison. T-test and Pairing signed rank sum test were used for analyzing the change of total score on every observation between groups in comparison with the baseline.
# (§2) Single angina pectoris score was depicted on every observation time-point and the change of observation in comparison with baseline. Wilcoxon rank sum test was used for inter-group comparison. Pairing signed rank sum test was used for analyzing the change of total score on every observation between groups in comparison with the baseline.
# as §1, with “comparison with the baseline. T-test” for “comparison with baseline. T-test”
# as §2, with “described” for “depicted”
# [1] = FAS, 12 months after treatment-baseline
# [2] = PP, 1 month after treatment-baseline
# [3] = PP, 3 months after treatment-baseline
smiles,measurement,setting,value
"CC(=O)Oc1ccccc1C(=O)O [Control group, aspirine]","change of total angina pectoris score, Md",[1],−2.00
same,"change of total angina pectoris score, Mean",[1],−3.28
same,patients with change of dose of nitroglycerin score 0 (%),[1],(65.55%)
same,patients with change of dose of nitroglycerin score 1 (%),[1],(0.52%)
same,patients with change of dose of nitroglycerin score 2 (%),[1],(3.97%)
same,patients with change of dose of nitroglycerin score 4 (%),[1],(0.40%)
same,patients with change of dose of nitroglycerin score 6 (%),[1],(0.35%)
same,patients with change of dose of nitroglycerin score −1 (%),[1],(0.52%)
same,patients with change of dose of nitroglycerin score −2 (%),[1],(21.77%)
same,patients with change of dose of nitroglycerin score −3 (%),[1],(0.06%)
same,patients with change of dose of nitroglycerin score −4 (%),[1],(4.95%)
same,patients with change of dose of nitroglycerin score −5 (%),[1],(0.06%)
same,patients with change of dose of nitroglycerin score −6 (%),[1],(1.84%)
same,"distribution of total angina pectoris score: Medium, number of patients","FAS, Baseline",608
same,"distribution of total angina pectoris score: Medium, percentage of patients","FAS, Baseline",(34.90%)
same,"distribution of total angina pectoris score: Mild, number of patients","FAS, Baseline",1086
same,"distribution of total angina pectoris score: Mild, percentage of patients","FAS, Baseline",(62.34%)
same,"distribution of total angina pectoris score: Severe, number of patients","FAS, Baseline",48
same,"distribution of total angina pectoris score: Severe, percentage of patients","FAS, Baseline",(2.76%)
same,"total angina pectoris score, Md","FAS, Baseline",8.00
same,"total angina pectoris score, Mean","FAS, Baseline",7.12
same,"distribution of total angina pectoris score: Medium, number of patients","FAS, Follow-up",199
same,"distribution of total angina pectoris score: Medium, percentage of patients","FAS, Follow-up",(13.79%)
same,"distribution of total angina pectoris score: Mild, number of patients","FAS, Follow-up",1243
same,"distribution of total angina pectoris score: Mild, percentage of patients","FAS, Follow-up",(86.14%)
same,"distribution of total angina pectoris score: Severe, number of patients","FAS, Follow-up",1
same,"distribution of total angina pectoris score: Severe, percentage of patients","FAS, Follow-up",(0.07%)
same,patients with dose of nitroglycerin score 0 (%),"FAS, Follow-up",(74.24%)
same,patients with dose of nitroglycerin score 1 (%),"FAS, Follow-up",(0.90%)
same,patients with dose of nitroglycerin score 2 (%),"FAS, Follow-up",(23.19%)
same,patients with dose of nitroglycerin score 4 (%),"FAS, Follow-up",(1.04%)
same,patients with dose of nitroglycerin score 6 (%),"FAS, Follow-up",(0.63%)
same,"total angina pectoris score, Md","FAS, Follow-up",0.00
same,"total angina pectoris score, Mean","FAS, Follow-up",3.59
same,"change of total angina pectoris score, Md","FAS, Follow-up-baseline",−2.00
same,"change of total angina pectoris score, Mean","FAS, Follow-up-baseline",−3.49
same,patients with change of dose of nitroglycerin score 0 (%),"FAS, Follow-up-baseline",(64.39%)
same,patients with change of dose of nitroglycerin score 1 (%),"FAS, Follow-up-baseline",(0.28%)
same,patients with change of dose of nitroglycerin score 2 (%),"FAS, Follow-up-baseline",(4.04%)
same,patients with change of dose of nitroglycerin score 4 (%),"FAS, Follow-up-baseline",(0.28%)
same,patients with change of dose of nitroglycerin score 6 (%),"FAS, Follow-up-baseline",(0.21%)
same,patients with change of dose of nitroglycerin score −1 (%),"FAS, Follow-up-baseline",(0.42%)
same,patients with change of dose of nitroglycerin score −2 (%),"FAS, Follow-up-baseline",(21.81%)
same,patients with change of dose of nitroglycerin score −3 (%),"FAS, Follow-up-baseline",(0.14%)
same,patients with change of dose of nitroglycerin score −4 (%),"FAS, Follow-up-baseline",(6.41%)
same,patients with change of dose of nitroglycerin score −5 (%),"FAS, Follow-up-baseline",(0.14%)
same,patients with change of dose of nitroglycerin score −6 (%),"FAS, Follow-up-baseline",(1.88%)
same,"change of attack times score, patients (%)","change 0, FAS",(44.70%)
same,"change of attack times score, patients (%)","change 0, PP",(44.46%)
same,"change of attack times score, patients (%)","change 1, FAS",(1.94%)
same,"change of attack times score, patients (%)","change 1, PP",(1.99%)
same,"change of attack times score, patients (%)","change 2, FAS",(1.73%)
same,"change of attack times score, patients (%)","change 2, PP",(1.70%)
same,"change of attack times score, patients (%)","change 4, FAS",(0.14%)
same,"change of attack times score, patients (%)","change 4, PP",(0.14%)
same,"change of attack times score, patients (%)","change −1, FAS",(22.52%)
same,"change of attack times score, patients (%)","change −1, PP",(22.44%)
same,"change of attack times score, patients (%)","change −2, FAS",(22.73%)
same,"change of attack times score, patients (%)","change −2, PP",(22.87%)
same,"change of attack times score, patients (%)","change −3, FAS",(2.01%)
same,"change of attack times score, patients (%)","change −3, PP",(2.06%)
same,"change of attack times score, patients (%)","change −4, FAS",(3.60%)
same,"change of attack times score, patients (%)","change −4, PP",(3.69%)
same,"change of attack times score, patients (%)","change −5, FAS",(0.21%)
same,"change of attack times score, patients (%)","change −5, PP",(0.21%)
same,"change of attack times score, patients (%)","change −6, FAS",(0.42%)
same,"change of attack times score, patients (%)","change −6, PP",(0.43%)
same,"attack times score, patients (%)","Follow-up, score 0, FAS",(53.64%)
same,"attack times score, patients (%)","Follow-up, score 0, PP",(53.48%)
same,"attack times score, patients (%)","Follow-up, score 1, FAS",(22.80%)
same,"attack times score, patients (%)","Follow-up, score 1, PP",(22.87%)
same,"attack times score, patients (%)","Follow-up, score 2, FAS",(22.94%)
same,"attack times score, patients (%)","Follow-up, score 2, PP",(23.01%)
same,"attack times score, patients (%)","Follow-up, score 4, FAS",(0.62%)
same,"attack times score, patients (%)","Follow-up, score 4, PP",(0.64%)
same,"distribution of total angina pectoris score: Medium, number of patients","PP, 1 month after treatment",434
same,"distribution of total angina pectoris score: Medium, percentage of patients","PP, 1 month after treatment",(29.21%)
same,"distribution of total angina pectoris score: Mild, number of patients","PP, 1 month after treatment",1030
same,"distribution of total angina pectoris score: Mild, percentage of patients","PP, 1 month after treatment",(69.31%)
same,"distribution of total angina pectoris score: Severe, number of patients","PP, 1 month after treatment",22
same,"distribution of total angina pectoris score: Severe, percentage of patients","PP, 1 month after treatment",(1.48%)
same,patients with dose of nitroglycerin score 0 (%),"PP, 1 month after treatment",(59.61%)
same,patients with dose of nitroglycerin score 1 (%),"PP, 1 month after treatment",(0.27%)
same,patients with dose of nitroglycerin score 2 (%),"PP, 1 month after treatment",(29.40%)
same,patients with dose of nitroglycerin score 4 (%),"PP, 1 month after treatment",(7.48%)
same,patients with dose of nitroglycerin score 6 (%),"PP, 1 month after treatment",(3.24%)
same,"total angina pectoris score, Md","PP, 1 month after treatment",6.00
same,"total angina pectoris score, Mean","PP, 1 month after treatment",5.95
same,"change of total angina pectoris score, Md",[2],0.00
same,"change of total angina pectoris score, Mean",[2],−1.22
same,patients with change of dose of nitroglycerin score 0 (%),[2],(80.36%)
same,patients with change of dose of nitroglycerin score 1 (%),[2],(0.20%)
same,patients with change of dose of nitroglycerin score 2 (%),[2],(3.78%)
same,patients with change of dose of nitroglycerin score 4 (%),[2],(1.01%)
same,patients with change of dose of nitroglycerin score 6 (%),[2],(0.27%)
same,patients with change of dose of nitroglycerin score −2 (%),[2],(11.54%)
same,patients with change of dose of nitroglycerin score −4 (%),[2],(2.29%)
same,patients with change of dose of nitroglycerin score −6 (%),[2],(0.54%)
same,"distribution of total angina pectoris score: Medium, number of patients","PP, 3 months after treatment",363
same,"distribution of total angina pectoris score: Medium, percentage of patients","PP, 3 months after treatment",(24.64%)
same,"distribution of total angina pectoris score: Mild, number of patients","PP, 3 months after treatment",1098
same,"distribution of total angina pectoris score: Mild, percentage of patients","PP, 3 months after treatment",(74.54%)
same,"distribution of total angina pectoris score: Severe, number of patients","PP, 3 months after treatment",12
same,"distribution of total angina pectoris score: Severe, percentage of patients","PP, 3 months after treatment",(0.81%)
same,patients with dose of nitroglycerin score 0 (%),"PP, 3 months after treatment",(62.95%)
same,patients with dose of nitroglycerin score 1 (%),"PP, 3 months after treatment",(0.75%)
same,patients with dose of nitroglycerin score 2 (%),"PP, 3 months after treatment",(29.10%)
same,patients with dose of nitroglycerin score 4 (%),"PP, 3 months after treatment",(4.96%)
same,patients with dose of nitroglycerin score 6 (%),"PP, 3 months after treatment",(2.24%)
same,"total angina pectoris score, Md","PP, 3 months after treatment",6.00
same,"total angina pectoris score, Mean","PP, 3 months after treatment",5.32
same,"change of total angina pectoris score, Md",[3],0.00
same,"change of total angina pectoris score, Mean",[3],−1.85
same,patients with change of dose of nitroglycerin score 0 (%),[3],(5.05%)
same,patients with change of dose of nitroglycerin score 1 (%),[3],(0.20%)
same,patients with change of dose of nitroglycerin score 2 (%),[3],(3.75%)
same,patients with change of dose of nitroglycerin score 4 (%),[3],(0.55%)
same,patients with change of dose of nitroglycerin score 6 (%),[3],(0.34%)
same,patients with change of dose of nitroglycerin score −1 (%),[3],(0.34%)
same,patients with change of dose of nitroglycerin score −2 (%),[3],(15.81%)
same,patients with change of dose of nitroglycerin score −4 (%),[3],(3.14%)
same,patients with change of dose of nitroglycerin score −5 (%),[3],(0.14%)
